Measurements published in US10829478B2, “5-[3-[piperazin-1-yl]-3-oxo-propyl]-imidazolidine-2,4-dione derivatives as ADAMTS 4 and 5 inhibitors for treating e.g. osteoarthritis” (Galapagos NV, priority 2016, dated 2020).
Read-outs that look alike come from different tables or passages of the source.

Assays:
human MMP13 [1] = molecular target: T1, human MMP13 (Homo sapiens (Human), UniProt P45452); experiment: hMMP13 assay, Protocol 1 (390 MMP FRET Substrate I, Chemicon enzyme); format: biochemical; conditions: Protocol 1, human MMP13 (Chemicon), read-out: hMMP-13 potency IC50
Description: (§1) Human MMP13 is preactivated by incubated the enzyme in the same buffer complemented with 1 mM freshly prepared p-Aminophenylmercuric acetate (AMPA) for 1 h at 37° C.

human ADAMTS4 = human ADAMTS4 (Homo sapiens (Human), UniProt O75173); experiment: hADAMTS-4 TBIS-1 cleavage assay, Protocol 2; format: biochemical
human TACE = human TACE (Homo sapiens (Human), UniProt P78536); experiment: biochemical
Description: Finally, the fluorescence is read on the Envision (Perkin Elmer) after an incubation of 75 min at room temperature (Excitation 485 nm, Emission 530).

human ADAMTS6 = human ADAMTS6 (Homo sapiens (Human), UniProt Q9UKP5); experiment: hADAMTS-6 fluorescent based protease assay (520 MMP FRET substrate XII); format: biochemical; conditions: 37° C. for 2 h; read-out: hADAMTS-6 potency IC50
Method in brief: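 ADAMTS6 (0.73 nM final) in 25 mM Tris pH 8.0, 0.05% CHAPS, 2.5 mM CaCl2 with compound dilution series (top 20 μM, 1/5 steps). Reaction started with 520 MMP FRET Substrate XII, incubated 2 h at 37 °C. Substrate cleavage read by fluorescence ex485/em530; IC50 determined.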

rnADAMTS-5 (1-564-6H) = rnADAMTS-5 (1-564-6H) (Rattus norvegicus (Rat), UniProt Q6TY19); experiment: Rat ADAMTS-5 TBIS-1 cleavage assay; format: biochemical; conditions: 120 min at 37° C.; read-out: Rat ADAMTS-5 potency IC50
human ADAMTS-5 = human ADAMTS-5 (Homo sapiens (Human), UniProt Q9UNA0); experiment: hADAMTS-5 TBIS-1 cleavage assay, Protocol 3; format: biochemical; conditions: 90 min at 37° C., read-out: hADAMTS-5 potency IC50
Description: The reaction is initiated by adding to the assay plate TBIS-1 (10 μL, 4.5 μM, Anaspec) in the same buffer.
Finally, the fluorescence is read on the Envision (Perkin Elmer) after an incubation of 90 min at 37° C. (Excitation 485 nm, emission 530).

human MMP13 [2] = molecular target: T1, human MMP13; experiment: hMMP13 assay, Protocol 2 (390 MMP FRET Substrate I, Enzo enzyme); format: biochemical; conditions: Protocol 2, human MMP13 (Enzo Life Sciences), read-out: hMMP-13 potency IC50
Description: as §1

human MMP14 = human MMP14 (Homo sapiens (Human), UniProt P50281); experiment: hMMP14 assay (390 MMP FRET Substrate I); format: biochemical; conditions: human MMP14 (Biomol), read-out: hMMP-14 potency IC50
Description: The basis for the assay is the cleavage of the substrate 390 MMP FRET Substrate I (Anaspec Cat #AS-27076) by human MMP14 (Biomol, Cat #SE-259).
The reaction is initiated by adding to the assay plate 390 MMP FRET Substrate I (10 μL, 2.5 μM) in the same buffer.
Finally, the fluorescence is read on the Envision (Perkin Elmer) after an incubation of 60 min at room temperature (Excitation 485 nm, Emission 530).

[3] = Protocol 2, 180 min at 37° C., read-out: ADAMTS4 potency IC50

Chain of human TACE (P78536 215-671): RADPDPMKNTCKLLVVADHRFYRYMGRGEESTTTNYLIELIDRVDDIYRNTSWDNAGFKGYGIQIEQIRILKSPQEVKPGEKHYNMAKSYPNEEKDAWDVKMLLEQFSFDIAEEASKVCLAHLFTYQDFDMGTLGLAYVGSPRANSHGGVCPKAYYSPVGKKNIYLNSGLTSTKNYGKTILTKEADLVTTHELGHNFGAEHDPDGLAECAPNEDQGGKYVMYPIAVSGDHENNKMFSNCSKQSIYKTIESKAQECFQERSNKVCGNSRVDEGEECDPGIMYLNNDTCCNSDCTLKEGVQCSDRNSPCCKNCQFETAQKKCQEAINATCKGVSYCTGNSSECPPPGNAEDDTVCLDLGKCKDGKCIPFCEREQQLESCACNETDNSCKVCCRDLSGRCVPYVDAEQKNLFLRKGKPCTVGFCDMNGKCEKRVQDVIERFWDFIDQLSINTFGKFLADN
Chain of human ADAMTS-5 (Q9UNA0 262-930): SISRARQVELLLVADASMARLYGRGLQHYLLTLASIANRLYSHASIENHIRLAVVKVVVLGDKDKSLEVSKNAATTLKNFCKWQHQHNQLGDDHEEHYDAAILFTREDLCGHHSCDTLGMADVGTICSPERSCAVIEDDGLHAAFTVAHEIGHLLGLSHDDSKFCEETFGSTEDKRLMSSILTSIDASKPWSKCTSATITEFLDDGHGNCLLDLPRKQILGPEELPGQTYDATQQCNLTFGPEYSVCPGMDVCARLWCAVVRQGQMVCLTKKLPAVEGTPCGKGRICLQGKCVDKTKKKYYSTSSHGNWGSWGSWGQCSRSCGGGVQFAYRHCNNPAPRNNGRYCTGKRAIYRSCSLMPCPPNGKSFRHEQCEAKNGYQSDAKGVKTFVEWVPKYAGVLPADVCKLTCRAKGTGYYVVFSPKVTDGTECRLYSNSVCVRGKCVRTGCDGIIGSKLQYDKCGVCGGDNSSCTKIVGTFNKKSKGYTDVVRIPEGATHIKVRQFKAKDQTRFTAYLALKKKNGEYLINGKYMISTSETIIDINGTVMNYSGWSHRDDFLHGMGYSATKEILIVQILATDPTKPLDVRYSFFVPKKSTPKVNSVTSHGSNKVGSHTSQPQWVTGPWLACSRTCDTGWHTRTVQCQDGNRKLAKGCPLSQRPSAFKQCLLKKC
Chain of human ADAMTS4 (O75173 213-837): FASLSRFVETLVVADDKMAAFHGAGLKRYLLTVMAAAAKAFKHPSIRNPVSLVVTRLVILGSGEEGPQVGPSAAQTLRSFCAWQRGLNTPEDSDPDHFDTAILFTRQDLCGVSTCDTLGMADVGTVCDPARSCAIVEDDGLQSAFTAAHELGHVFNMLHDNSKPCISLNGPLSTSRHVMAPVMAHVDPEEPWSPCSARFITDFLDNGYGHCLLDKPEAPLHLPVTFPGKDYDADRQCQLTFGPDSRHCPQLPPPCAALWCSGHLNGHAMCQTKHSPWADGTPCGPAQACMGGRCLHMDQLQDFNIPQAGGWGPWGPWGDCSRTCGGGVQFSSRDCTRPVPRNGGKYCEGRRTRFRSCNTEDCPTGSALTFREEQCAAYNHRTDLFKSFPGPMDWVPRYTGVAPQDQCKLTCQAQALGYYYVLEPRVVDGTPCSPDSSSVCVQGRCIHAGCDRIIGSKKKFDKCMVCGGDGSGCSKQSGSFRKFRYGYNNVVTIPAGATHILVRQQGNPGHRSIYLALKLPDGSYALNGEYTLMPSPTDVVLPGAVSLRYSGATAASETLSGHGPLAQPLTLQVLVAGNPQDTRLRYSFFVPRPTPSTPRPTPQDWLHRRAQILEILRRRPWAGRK
Chain of human ADAMTS6 (Q9UKP5 other isoform, or with tags, fused parts or gaps): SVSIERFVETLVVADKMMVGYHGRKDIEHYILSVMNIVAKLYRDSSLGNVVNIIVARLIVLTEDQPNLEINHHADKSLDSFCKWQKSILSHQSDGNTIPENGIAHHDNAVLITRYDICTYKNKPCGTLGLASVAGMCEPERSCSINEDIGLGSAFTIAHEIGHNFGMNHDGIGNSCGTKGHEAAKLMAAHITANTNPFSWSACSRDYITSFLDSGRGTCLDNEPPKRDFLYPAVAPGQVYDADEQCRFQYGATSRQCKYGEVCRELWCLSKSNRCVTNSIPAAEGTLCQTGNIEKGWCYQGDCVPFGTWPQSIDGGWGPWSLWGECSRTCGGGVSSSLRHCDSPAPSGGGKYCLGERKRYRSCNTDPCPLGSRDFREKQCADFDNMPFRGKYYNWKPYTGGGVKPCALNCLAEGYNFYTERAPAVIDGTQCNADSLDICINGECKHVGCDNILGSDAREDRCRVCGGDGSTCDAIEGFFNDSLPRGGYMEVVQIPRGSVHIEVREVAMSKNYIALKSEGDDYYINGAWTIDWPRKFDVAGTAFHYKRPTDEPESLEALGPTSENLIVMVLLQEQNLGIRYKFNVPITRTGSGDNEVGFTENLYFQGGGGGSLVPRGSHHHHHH
Chain of rnADAMTS-5 (1-564-6H) (Q6TY19 entry or part of it): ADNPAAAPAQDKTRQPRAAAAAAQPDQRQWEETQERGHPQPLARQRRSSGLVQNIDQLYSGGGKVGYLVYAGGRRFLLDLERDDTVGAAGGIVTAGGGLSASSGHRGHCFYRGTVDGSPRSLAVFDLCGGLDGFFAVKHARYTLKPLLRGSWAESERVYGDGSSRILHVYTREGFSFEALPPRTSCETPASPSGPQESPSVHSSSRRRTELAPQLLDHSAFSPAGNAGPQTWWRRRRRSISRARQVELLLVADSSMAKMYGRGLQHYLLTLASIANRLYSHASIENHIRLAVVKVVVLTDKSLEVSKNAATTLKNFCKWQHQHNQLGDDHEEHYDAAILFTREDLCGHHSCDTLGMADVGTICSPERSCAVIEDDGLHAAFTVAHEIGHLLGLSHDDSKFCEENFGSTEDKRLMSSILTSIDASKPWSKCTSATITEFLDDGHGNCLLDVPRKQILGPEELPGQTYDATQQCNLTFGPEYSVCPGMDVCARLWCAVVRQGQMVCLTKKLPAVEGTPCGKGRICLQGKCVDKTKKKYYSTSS

Row | IC50 (human TACE) | IC50 (human ADAMTS6) | IC50 (human ADAMTS-5) | IC50 (human ADAMTS4; [3]) | IC50 (human MMP13 [2]) | IC50 (human MMP14) | SMILES | IC50 (human MMP13 [1]) | IC50 (human ADAMTS4) | IC50 (rnADAMTS-5 (1-564-6H))
1 |  | > 100 nM | > 100 nM |  |  |  | COc1cc(F)cc(N2CCN(C(=O)[C@H](C)C[C@@]3(C4CC4)NC(=O)NC3=O)CC2)c1 (stereo in doubt) [Cpd 130, 5-cyclopropyl-5-[3-[4-(3-fluoro-5-methoxy-phenyl)piperazin-1-yl]-2-methyl-3-oxo-propyl]imidazolidine-2,4-dione] |  |  | > 100 nM
2 |  | > 100 nM | > 100 nM |  |  |  | COc1cc(F)cc(N2CCN(C(=O)[C@H](C)C[C@@]3(C)NC(=O)NC3=O)CC2)c1 (stereo in doubt) [Cpd 131, 5-[3-[4-(3-fluoro-5-methoxy-phenyl)piperazin-1-yl]-2-methyl-3-oxo-propyl]-5-methyl-imidazolidine-2,4-dione] |  |  | > 100 nM
3 | > 100 nM | 25 to 50 nM | > 100 nM | > 100 nM |  |  | COc1cc(OC)cc(N2CCN(C(=O)CCC3(C)NC(=O)NC3=O)C[C@@H]2C)c1 (stereo partly drawn) [Cpd 25, 5-[3-[(3 S)-4-(3,5-dimethoxyphenyl)-3-methyl-piperazin-1-yl]-3-oxo-propyl]-5-methyl-imidazolidine-2,4-dione] | > 100 nM |  | > 100 nM
4 | > 100 nM | 0.001 to 25 nM | > 100 nM | > 100 nM | > 100 nM | > 100 nM | CCc1cc(N2CCN(C(=O)CC[C@@]3(C)NC(=O)NC3=O)C[C@@H]2C)cc(OC)c1Cl [Cpd 106, (5R)-5-[3-[(3 S)-4-(4-chloro-3-ethyl-5-methoxy-phenyl)-3-methyl-piperazin-1-yl]-3-oxo-propyl]-5-methyl-imidazolidine-2,4-dione] |  |  | 
5 | > 100 nM | > 100 nM | > 100 nM | > 100 nM | > 100 nM | > 100 nM | CC[C@H]1CN(C(=O)CC[C@@]2(C)NC(=O)NC2=O)CCN1c1ccc(Cl)c(OC)c1 [Cpd 107, (5R)-5-[3-[(3 S)-4-(4-chloro-3-methoxy-phenyl)-3-ethyl-piperazin-1-yl]-3-oxo-propyl]-5-methyl-imidazolidine-2,4-dione] |  |  | 
6 | > 100 nM | > 100 nM | > 100 nM | > 100 nM | > 100 nM | > 100 nM | COc1cc(N2CCN(C(=O)CC[C@@]3(C)NC(=O)NC3=O)C[C@@H]2C(C)C)ccc1Cl [Cpd 109, (5R)-5-[3-[(3S)-4-(4-chloro-3-methoxy-phenyl)-3-isopropyl-piperazin-1-yl]-3-oxo-propyl]-5-methyl-imidazolidine-2,4-dione] |  |  | 
7 | > 100 nM | 0.001 to 25 nM | > 100 nM | > 100 nM | > 100 nM | > 100 nM | CCc1cc(N2CCN(C(=O)CC[C@@]3(C)NC(=O)NC3=O)CC2)cc(OC)c1Cl [Cpd 115, (5R)-5-[3-[4-(4-chloro-3-ethyl-5-methoxy-phenyl)piperazin-1-yl]-3-oxo-propyl]-5-methyl-imidazolidine-2,4-dione] |  |  | 
8 | > 100 nM | 0.001 to 25 nM | > 100 nM | > 100 nM | > 100 nM | > 100 nM | COc1cc(N2CCN(C(=O)CC[C@@]3(C)NC(=O)NC3=O)CC2C(F)(F)F)ccc1Cl (stereo partly drawn) [Cpd 118, (5R)-5-[3-[4-(4-chloro-3-methoxy-phenyl)-3-(trifluoromethyl)piperazin-1-yl]-3-oxo-propyl]-5-methyl-imidazolidine-2,4-dione] |  |  | 
9 | > 100 nM | 0.001 to 25 nM | 0.001 to 25 nM | > 100 nM | > 100 nM | > 100 nM | COc1cc(N2CCN(C(=O)CC[C@@]3(C)NC(=O)NC3=O)C[C@@H]2C)cc(F)c1Cl [Cpd 119, (5R)-5-[3-[(3 S)-4-(4-chloro-3-fluoro-5-methoxy-phenyl)-3-methyl-piperazin-1-yl]-3-oxo-propyl]-5-methyl-imidazolidine-2,4-dione] |  |  | 
10 | > 100 nM | > 100 nM | > 100 nM | > 100 nM | > 100 nM | > 100 nM | COc1cc(N2CCN(C(=O)CC[C@]3(C)NC(=O)NC3=O)C[C@@H]2C)ccc1Cl [Cpd 146, (5 S)-5-[3-[(3 S)-4-(4-chloro-3-methoxy-phenyl)-3-methyl-piperazin-1-yl]-3-oxo-propyl]-5-methyl-imidazolidine-2,4-dione] |  |  | 
11 | > 100 nM | 0.001 to 25 nM | > 100 nM | > 100 nM | > 100 nM | > 100 nM | COc1cc(N2CCN(C(=O)CC[C@H]3NC(=O)NC3=O)CC2)cc(Cl)c1F [Cpd 147, (5R)-5-[3-[4-(3-chloro-4-fluoro-5-methoxy-phenyl)piperazin-1-yl]-3-oxo-propyl]imidazolidine-2,4-dione] |  |  | 
12 | > 100 nM | 0.001 to 25 nM | 25 to 50 nM | > 100 nM | > 100 nM | > 100 nM | COc1cc(N2CCN(C(=O)CC[C@H]3NC(=O)NC3=O)C[C@@H]2C)cc(Cl)c1F [Cpd 148, (5R)-5-[3-[(3 S)-4-(3-chloro-4-fluoro-5-methoxy-phenyl)-3-methyl-piperazin-1-yl]-3-oxo-propyl]imidazolidine-2,4-dione] |  |  | 
13 | > 100 nM | 0.001 to 25 nM | > 100 nM | > 100 nM | > 100 nM | > 100 nM | CCOc1cc(N2CCN(C(=O)CC[C@H]3NC(=O)NC3=O)C[C@@H]2C)cc(OC)c1Cl [Cpd 150, (5R)-5-[3-[(3 S)-4-(4-chloro-3-ethoxy-5-methoxy-phenyl)-3-methyl-piperazin-1-yl]-3-oxo-propyl]imidazolidine-2,4-dione] |  |  | 

Row | SMILES | IC50 (human TACE) | IC50 (human ADAMTS6) | IC50 (human ADAMTS-5) | IC50 (human ADAMTS4; [3]) | IC50 (human MMP13 [2]) | IC50 (human MMP14) | IC50 (human MMP13 [1]) | IC50 (human ADAMTS4) | IC50 (rnADAMTS-5 (1-564-6H))
14 | COc1cc(N2CCN(C(=O)[C@@H](C)C[C@@]3(C)NC(=O)NC3=O)CC2)cc(OC)c1Cl (stereo in doubt) [Cpd 40, 5-[3-[4-(4-chloro-3,5-dimethoxy-phenyl)piperazin-1-yl]-2-methyl-3-oxo-propyl]-5-methyl-imidazolidine-2,4-dione] | > 100 nM | 0.001 to 25 nM | 50 to 100 nM |  |  |  | > 100 nM | 25 to 50 nM | > 100 nM
15 | COc1cc(N2CCN(C(=O)CCC3(C4CC4)NC(=O)NC3=O)C[C@@H]2C)cc(F)c1F (stereo partly drawn) [Cpd 21, 5-cyclopropyl-5-[3-[(3S)-4-(3,4-difluoro-5-methoxy-phenyl)-3-methyl-piperazin-1-yl]-3-oxo-propyl]imidazolidine-2,4-dione] | > 100 nM | 0.001 to 25 nM | 0.001 to 25 nM |  |  |  | > 100 nM | 50 to 100 nM | 0.001 to 25 nM
16 | COc1cc(F)cc(N2CCN(C(=O)CCC3(c4cccnc4)NC(=O)NC3=O)CC2)c1 (stereo not drawn) [Cpd 23, 5-[3-[4-(3-fluoro-5-methoxy-phenyl)piperazin-1-yl]-3-oxo-propyl]-5-(3-pyridyl)imidazolidine-2,4-dione] | > 100 nM | 25 to 50 nM | 50 to 100 nM |  |  |  | > 100 nM | 50 to 100 nM | 50 to 100 nM
17 | COc1cc(F)cc(N2CCN(C(=O)[C@@H](C)C[C@@]3(C4CC4)NC(=O)NC3=O)CC2)c1 [Cpd 26, (5 S)-5-cyclopropyl-5-[(2S)-3-[4-(3-fluoro-5-methoxy-phenyl)piperazin-1-yl]-2-methyl-3-oxo-propyl]imidazolidine-2,4-dione] | > 100 nM | 0.001 to 25 nM | 0.001 to 25 nM |  |  |  | > 100 nM | 0.001 to 25 nM | 0.001 to 25 nM
18 | COc1cc(N2CCN(C(=O)CC[C@@]3(C)NC(=O)NC3=O)CC2)cc(C)c1Cl [Cpd 112, (5R)-5-[3-[4-(4-chloro-3-methoxy-5-methyl-phenyl)piperazin-1-yl]-3-oxo-propyl]-5-methyl-imidazolidine-2,4-dione] | > 100 nM | 0.001 to 25 nM | > 100 nM |  | > 100 nM | > 100 nM |  | 50 to 100 nM | 
19 | COc1cc(N2CCN(C(=O)[C@@H](C)C[C@@]3(C)NC(=O)NC3=O)CC2)cc(F)c1Cl [Cpd 122, (5R)-5-[(2S)-3-[4-(4-chloro-3-fluoro-5-methoxy-phenyl)piperazin-1-yl]-2-methyl-3-oxo-propyl]-5-methyl-imidazolidine-2,4-dione] | > 100 nM | 0.001 to 25 nM | 0.001 to 25 nM |  | > 100 nM | > 100 nM |  | 50 to 100 nM | 
20 | COC[C@]1(C[C@H](C)C(=O)N2CCN(c3cc(F)c(Cl)c(OC)c3)CC2)NC(=O)NC1=O [Cpd 123, (5 S)-5-[(2S)-3-[4-(4-chloro-3-fluoro-5-methoxy-phenyl)piperazin-1-yl]-2-methyl-3-oxo-propyl]-5-(methoxymethyl)imidazolidine-2,4-dione] | > 100 nM | 0.001 to 25 nM | 0.001 to 25 nM |  | > 100 nM | > 100 nM |  | 50 to 100 nM | 
